Results on 61 compounds are retold here after patent US6844435B2, “Heterocyclic compounds useful as inhibitors of tyrosine kinases” (Boehringer Ingelheim Pharmaceuticals, Inc., priority 2000, dated 2005).

Molecules are shown by their SMILES.

Usually melting point stands for the temperature of the solid-liquid transition.

As to `Cn1c(Nc2c(Cl)cccc2Cl)nc2ccc3nc(C4=CCCC4)[nH]c(=O)c3c21` [Example 35], the melting point is 295 °C (dec.).

Take `Cn1c(Nc2c(Cl)cccc2Cl)nc2ccc3nc(-c4csc(-c5cccc(N)c5)n4)[nH]c(=O)c3c21` [Example 36]: the melting point is 240 °C (dec.). Regarding `CCOC(=O)c1nc2ccc3nc(Nc4c(Cl)cccc4Cl)n(C)c3c2c(=O)[nH]1` [Example 37], the melting point lay in the range of 275 to 277 °C.

For the compound `Cc1ccccc1-c1nc2ccc3nc(Nc4c(Cl)cccc4Cl)n(C)c3c2c(=O)[nH]1` [Example 38], the melting point was more than 300 °C. `Cn1c(Nc2c(Cl)cccc2Cl)nc2ccc3nc(-c4cc5ccccc5o4)[nH]c(=O)c3c21` [Example 39] showed a melting point of more than 300 °C. Regarding `Cn1c(Nc2c(Cl)cccc2Cl)nc2ccc3nc(CC4=CCCC4)[nH]c(=O)c3c21` [Example 40], the melting point was 258 °C (dec.). `Cn1c(Nc2c(Cl)cccc2Cl)nc2ccc3nc(C(=O)NCCO)[nH]c(=O)c3c21` [Example 41] had a melting point of 265 to 268 °C. In turn, `Cn1c(Nc2c(Cl)cccc2Cl)nc2ccc3nc(C(=O)O)[nH]c(=O)c3c21` [Example 42] returned a melting point of more than 300 °C. In the case of `Cn1c(Nc2c(Cl)cccc2Cl)nc2ccc3nc(-c4nc5ccccc5[nH]4)[nH]c(=O)c3c21` [Example 43] it was more than 300 °C; in that of `C/C=C(\C)c1nc2ccc3nc(Nc4c(Cl)cccc4Cl)n(C)c3c2c(=O)[nH]1` [Example 45], 278 °C (dec.); in that of `Cc1ncc(-c2nc3ccc4nc(Nc5c(Cl)cccc5Cl)n(C)c4c3c(=O)[nH]2)o1` [Example 46], more than 300 °C.

Take `Cn1c(Nc2c(Cl)cccc2Cl)nc2ccc3nc(C(=O)c4c[nH]c5ccccc45)[nH]c(=O)c3c21` [Example 47]: the melting point is more than 300 °C. In the case of `Cn1c(Nc2c(Cl)cccc2Cl)nc2ccc3nc(C4=CC(N5CCNCC5)CC4)[nH]c(=O)c3c21` (stereo not shown) [Example 48] it was 173 to 174 °C; in that of `CC(C)c1nc2ccc3nc(Nc4c(Cl)cccc4Cl)n(C)c3c2c(=O)[nH]1` [Example 49], 279 °C (dec.).

In turn, `Cn1c(Nc2c(Cl)cccc2Cl)nc2ccc3nc(C4CCCC4)[nH]c(=O)c3c21` [Example 50] returned a melting point of 283 to 284 °C.

`Cn1c(Nc2c(Cl)cccc2Cl)nc2ccc3nc(C(=O)N4CCCC4)[nH]c(=O)c3c21` [Example 52]: the melting point is 295 °C (dec.). In the case of `CCc1nc2ccc3nc(Nc4c(Cl)cccc4Cl)n(C)c3c2c(=O)[nH]1` [Example 53] it was more than 300 °C; in that of `CN1CCC=C(c2nc3ccc4nc(Nc5c(Cl)cccc5Cl)n(C)c4c3c(=O)[nH]2)C1` [Example 54], 255 °C; in that of `Cn1c(Nc2c(Cl)cccc2Cl)nc2ccc3nc(-c4ccc(-c5ccccc5[N+](=O)[O-])o4)[nH]c(=O)c3c21` [Example 55], 289 to 292 °C. `Cn1c(Nc2c(Cl)cccc2Cl)nc2ccc3nc(-c4ccc(Br)o4)[nH]c(=O)c3c21` [Example 57] gave a melting point of 280 to 283 °C. The same measure for `Cc1ccoc1-c1nc2ccc3nc(Nc4c(Cl)cccc4Cl)n(C)c3c2c(=O)[nH]1` [Example 58]: 304 to 310 °C (dec.); for `Cn1c(Nc2c(Cl)cccc2Cl)nc2ccc3nc(C4CC4)[nH]c(=O)c3c21` [Example 59]: more than 300 °C; for `Cn1c(Nc2c(Cl)cccc2Cl)nc2ccc3nc(C(=O)c4ccccc4)[nH]c(=O)c3c21` [Example 60]: 280 °C (dec.). As to `CN1CCN(S(=O)(=O)c2cccc(-c3nc4ccc5nc(Nc6c(Cl)cccc6Cl)n(C)c5c4c(=O)[nH]3)c2)CC1` [Example 61], the melting point was 215 °C (dec.). The same measure for `CNc1nc2ccc3nc(Nc4c(Cl)cccc4Cl)n(C)c3c2c(=O)[nH]1` [Example 62]: 198 to 204 °C. On to `CC(C)=C(C)c1nc2ccc3nc(Nc4c(Cl)cccc4Cl)n(C)c3c2c(=O)[nH]1` [Example 63], for which the melting point is more than 300 °C. Turning to `CCCCCc1nc2ccc3nc(Nc4c(Cl)cccc4Cl)n(C)c3c2c(=O)[nH]1` [Example 64], the melting point was 257 to 260 °C. In the case of `Cn1c(Nc2c(Cl)cccc2Cl)nc2ccc3nc(C4=CC(N5CCN(C(=O)OC(C)(C)C)CC5)CC4)[nH]c(=O)c3c21` (stereo not shown) [Example 65] it was 168 to 170 °C; in that of `Cn1c(Nc2c(Cl)cccc2Cl)nc2ccc3nc(C4=CC(O)CC4)[nH]c(=O)c3c21` (stereo not shown) [Example 66], 285 °C. With `Cn1c(Nc2c(Cl)cccc2Cl)nc2ccc3nc(-c4cccc(S(=O)(=O)N5CCN(C(=O)OC(C)(C)C)CC5)c4)[nH]c(=O)c3c21` [Example 67], the melting point was determined as 189 °C. `Cn1c(Nc2c(Cl)cccc2Cl)nc2ccc3nc(-c4cccc(S(=O)(=O)N5CCNCC5)c4)[nH]c(=O)c3c21` [Example 68] returned a melting point of 210 °C.

Consider `Cn1c(Nc2c(Cl)cccc2Cl)nc2ccc3nc(C4=CCC(C#N)C4)[nH]c(=O)c3c21` (stereo not shown) [Example 69], for which the melting point is > 295 °C (dec.). The same measure for `C/C(=C\c1cccc(C#N)c1)c1nc2ccc3nc(Nc4c(Cl)cccc4Cl)n(C)c3c2c(=O)[nH]1` [Example 70]: 288 to 290 °C. `C/C(=C\c1ccccc1[N+](=O)[O-])c1nc2ccc3nc(Nc4c(Cl)cccc4Cl)n(C)c3c2c(=O)[nH]1` [Example 71] returned a melting point of 290 to 292 °C. Take `CC(=O)C1CC=C(c2nc3ccc4nc(Nc5c(Cl)cccc5Cl)n(C)c4c3c(=O)[nH]2)C1` (stereo not shown) [Example 72]: the melting point was > 215 °C (dec.). `Cn1c(Nc2c(Cl)cccc2Cl)nc2ccc3nc(-c4csc([C@H]5CCCN5C(=O)OCc5ccccc5)n4)[nH]c(=O)c3c21` [Example 73] showed a melting point of 209 °C.

Compound `Cn1c(Nc2c(Cl)cccc2Cl)nc2ccc3nc(-c4csc([C@@H]5CCCC[C@H]5NC(=O)OCc5ccccc5)n4)[nH]c(=O)c3c21` [Example 75] displayed a melting point of 163 to 169 °C.

With `Cn1c(Nc2c(Cl)cccc2Cl)nc2ccc3nc(-c4csc(CC5CCCN(C(=O)OCc6ccccc6)C5)n4)[nH]c(=O)c3c21` (stereo not shown) [Example 76], the melting point fell in the range of 155 to 160 °C. The same measure for `Cn1c(Nc2c(Cl)cccc2Cl)nc2ccc3nc(-c4csc([C@@H]5CCCC[C@H]5N)n4)[nH]c(=O)c3c21` [Example 77]: 295 to 300 °C (dec.); for `Cn1c(Nc2c(Cl)cccc2Cl)nc2ccc3nc(-c4csc(CC5CCCNC5)n4)[nH]c(=O)c3c21` (stereo not shown) [Example 78]: 161 to 166 °C; for `Cc1nc(-c2nc3ccc4nc(Nc5c(Cl)cccc5Cl)n(C)c4c3c(=O)[nH]2)cs1` [Example 79]: 295 °C (dec.). As for `C/C(=C\c1ccccc1N)c1nc2ccc3nc(Nc4c(Cl)cccc4Cl)n(C)c3c2c(=O)[nH]1` [Example 80], the melting point was 310 to 313 °C.

Turning to `Cn1c(Nc2c(Cl)cccc2Cl)nc2ccc3nc(C4=CC(=O)CC4)[nH]c(=O)c3c21` [Example 81], the melting point is more than 300 °C.

For the compound `Cn1c(Nc2c(Cl)cccc2Cl)nc2ccc3nc(C4=CCN(C(=O)OC(C)(C)C)C4)[nH]c(=O)c3c21` [Example 83], the melting point lay within 206 to 208 °C. `C/C(=C\c1cccc(N)c1)c1nc2ccc3nc(Nc4c(Cl)cccc4Cl)n(C)c3c2c(=O)[nH]1` [Example 84]: the melting point was > 300 °C (dec.). The same measure for `CC(=O)OCC(=O)N1CCN(S(=O)(=O)c2cccc(-c3nc4ccc5nc(Nc6c(Cl)cccc6Cl)n(C)c5c4c(=O)[nH]3)c2)CC1` [Example 85]: 246 °C (dec.). `Cn1c(Nc2c(Cl)cccc2Cl)nc2ccc3nc(C4=CCNC4)[nH]c(=O)c3c21` [Example 86]: the melting point was 240 to 241 °C (dec.). The compound `CCCCCC1NC(=O)c2c(ccc3nc(Nc4c(Cl)cccc4Cl)n(C)c23)N1C` (stereo not shown) [Example 87] registered a melting point of 126 to 128 °C. `CN1c2ccc3nc(Nc4c(Cl)cccc4Cl)n(C)c3c2C(=O)NC1c1ccccc1` (stereo not shown) [Example 88]: the melting point was 228 to 230 °C.

In turn, `C/C(=C\c1cccc(CN)c1)c1nc2ccc3nc(Nc4c(Cl)cccc4Cl)n(C)c3c2c(=O)[nH]1` [Example 89] showed a melting point of 197 to 205 °C.

As for `Cn1c(Nc2c(Cl)cccc2Cl)nc2ccc3nc(-c4cccc(S(=O)(=O)N5CCN(C(=N)N)CC5)c4)[nH]c(=O)c3c21` [Example 90], the melting point was found to be 215 °C. In turn, `Cn1c(Nc2c(Cl)cccc2Cl)nc2ccc3nc(-c4cccc(S(=O)(=O)N5CCN(C(=O)CO)CC5)c4)[nH]c(=O)c3c21` [Example 91] displayed a melting point of more than 300 °C. The same measure for `[H]/N=C(/N)c1cccc(/C=C(\C)c2nc3ccc4nc(Nc5c(Cl)cccc5Cl)n(C)c4c3c(=O)[nH]2)c1` [Example 92]: more than 300 °C; for `Cn1c(Nc2c(Cl)cccc2Cl)nc2ccc3nc(C4=CC5CN(C(=O)OC(C)(C)C)CC5C4)[nH]c(=O)c3c21` (stereo not shown) [Example 94]: 210 to 215 °C; for `Cn1c(Nc2c(Cl)cccc2Cl)nc2ccc3nc(C4=CC5CNCC5C4)[nH]c(=O)c3c21` (stereo not shown) [Example 95]: 265 °C (dec.). `Cn1c(Nc2c(Cl)cccc2Cl)nc2ccc3nc(-c4ccc(S(=O)(=O)N5CCN(C(=O)OC(C)(C)C)CC5)cc4)[nH]c(=O)c3c21` [Example 96] yielded a melting point of 190 °C. In the case of `Cn1c(Nc2c(Cl)cccc2Cl)nc2ccc3nc(-c4csc([C@H]5CCCN5)n4)[nH]c(=O)c3c21` [Example 98] it was 290 °C (dec.); in that of `C/C(=C\c1cc(N)cc(N)c1)c1nc2ccc3nc(Nc4c(Cl)cccc4Cl)n(C)c3c2c(=O)[nH]1` [Example 99], 195 to 200 °C (dec.); in that of `Cn1c(Nc2c(Cl)cccc2Cl)nc2ccc3nc(-c4ccc(S(=O)(=O)N5CCNCC5)cc4)[nH]c(=O)c3c21` [Example 100], 246 °C. As to `C/C(=C\c1cccc(NC(=N)N)c1)c1nc2ccc3nc(Nc4c(Cl)cccc4Cl)n(C)c3c2c(=O)[nH]1` [Example 101], the melting point was 170 °C (dec.). In turn, `C/C(=C\c1ccccc1C#N)c1nc2ccc3nc(Nc4c(Cl)cccc4Cl)n(C)c3c2c(=O)[nH]1` [Example 102] yielded a melting point of 284 to 288 °C.
